Test results as given in patent publication US4719231A, “3-[N-(mercaptoacyl)]amino-4-arylbutanoic acid derivatives and an analgesic agent comprising the same” (Zaidan Hojin Biseibutsu Kagaku Kenkyu Kai, priority 1984, dated 1988).
Where “and” joins values, the source holds several entries; their conditions need not be identical. Equal values may be shown once. Blank lines part the entries; values can stand above or below the molecule they belong to.

Tests used:
enkephalinase = target: T1, enkephalinase (Rattus norvegicus, UniProt P07861); experiment: Inhibitory activity against enkephalinase; assay type: biochemical; conditions: enkephalinase from corpus striatum of rat brain; substrate methionine-enkephaline; pH 7.7; 1 hour at 37° C.
T1 construct: A preparation of enkephalinase was made by homogenizing corpus striatum of rat brain and by partial purification of the brain homogenate; from tissue; host or cells: rat brain corpus striatum, homogenized and partially purified
T1 sequence (P07861 1-750): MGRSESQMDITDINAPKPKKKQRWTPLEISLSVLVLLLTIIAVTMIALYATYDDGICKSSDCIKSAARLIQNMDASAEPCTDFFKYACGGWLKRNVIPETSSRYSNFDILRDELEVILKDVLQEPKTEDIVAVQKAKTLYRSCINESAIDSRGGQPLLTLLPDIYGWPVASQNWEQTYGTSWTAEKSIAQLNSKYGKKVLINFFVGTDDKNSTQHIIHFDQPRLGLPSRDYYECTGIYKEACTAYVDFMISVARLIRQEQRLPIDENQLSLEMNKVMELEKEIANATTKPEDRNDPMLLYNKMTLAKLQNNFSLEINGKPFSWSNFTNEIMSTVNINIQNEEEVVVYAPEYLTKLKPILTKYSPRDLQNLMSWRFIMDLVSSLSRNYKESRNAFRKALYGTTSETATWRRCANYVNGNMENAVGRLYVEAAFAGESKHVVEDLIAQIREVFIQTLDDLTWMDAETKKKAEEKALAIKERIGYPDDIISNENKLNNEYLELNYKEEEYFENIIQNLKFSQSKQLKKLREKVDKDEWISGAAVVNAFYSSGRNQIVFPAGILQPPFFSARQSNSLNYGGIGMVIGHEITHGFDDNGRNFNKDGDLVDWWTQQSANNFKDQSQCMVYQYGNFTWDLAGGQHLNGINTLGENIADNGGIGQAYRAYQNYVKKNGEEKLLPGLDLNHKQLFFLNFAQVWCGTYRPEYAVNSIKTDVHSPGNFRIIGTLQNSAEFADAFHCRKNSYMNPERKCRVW
Description: Inhibitory activity against enkephalinase
A preparation of enkephalinase was made by homogenizing corpus striatum of rat brain and by partial purification of the brain homogenate according to the method of Gorenstein et al (see: the "Life Science" vol. 25, 2065~2070 (1979)).
A test compound as identified in Table 1 below was dissolved in a mixture of Tris-hydrochloride buffered solution (pH 7.7) and an aqueous 1% Triton×100 (an active surfactant) to such a concentration that the added quantity of the test compound amounted to one-tenth of the volume of said mixture. To the solution of the test compound so prepared was added the enkephalinase, followed by incubation for 5 minutes at ambient temperature and the resulting mixture was admixed with methionine-enkephaline as the substrate. The reaction mixture so prepared was incubated for 1 hour at 37° C. and then subjected to a high-performance liquid chromatography in such a manner that the Tyr-Gly-Gly (a fragment of the methionine-enkephaline) formed by the enzymatic degradation of the methionine-enkephaline was isolated and the quantity of Tyr-Gly-Gly was determined by an electro-chemical detector. In this way, IC50 value of the test compound, namely, the dose of the test compound required for 50% inhibition of the enkephalinase was measured.

[1] = Analgesic activity by the acetic acid-writhing method; assay type: in vivo, mouse (ddy-strain); conditions: mice, *P < 0.05, **P < 0.01
Description: Analgesic activity of test compound as estimated according to the acetic acid-writhing method
Mice of ddy-strain (body weight 20 to 25 grams) were employed as the test animal. A suspension of the compound under test was subcutaneously injected in such a manner that said suspension as injected into each mouse provides the dosage of 30 mg/kg or 300 mg/kg of the test compound. 30 Minutes after the administration, an aqueous solution of 0.6% of acetic acid was injected intraperitoneally into the mice at a volume of 0.1 ml per 10 g of the body weight. 5 Minutes after the injection of the aqueous acetic acid, the estimation was commenced to count the number of the writhing reaction of the treated mice (the motions such as abdominal constrictions and extensions of the treated mice as induced by the injection of acetic acid) which took place for the subsequent 15 minutes.
The rate (%) of suppression of the writhing reaction by the test compound was evaluated according to the following equation: [formula]

[2] = Effect of enhancing the analgesia by DAME, tail-flick latency method; assay type: in vivo, rat; conditions: rats; for Enhancement in the analgesia by DAME: DAME 10 μg + test compound 30 μg relative to DAME 10 μg; for M.P.E. DAME 10 μg + Test Compound 30 μg: n = 3 - 4, **P < 0.01; for M.P.E. Test compound 30 μg: test compound 30 μg alone, n = 3 - 4
Description: Effect of enhancing the analgesia by [D-ala^2,met^5 ]enkephaline (abbreviated as DAME)
A known analgesic compound, DAME and the particular compound under test of this invention were administered into the brain of the test rats by puncture of cerebroventride.
Thus, the test compound was administered into the brain of the rats using a metal cannula of 400 μm in external diameter which had been inserted into the ventriculus lateralis cerebri in a brain region of 3.2 mm anterior from the bregma, 0 mm from the central line and 0.7 mm in depth, of the brain. [see "L. J. Pellegrino and A. J. Cushman; A Stereotaxic Atras of the Rat Brain. Appleton-Century-Crofts, Division of Meredith Publishing Co., New York, (1967)"]. The test for the estimation was commenced at such a time after 48 hours or more later than the end of the surgical operation when the test rats were deemed as having recovered from the damages induced by the surgical operation. Analgesia tests were conducted using the rats having been closely restrained in a wire mesh cage, according to the tail-flick latency method (see: Hachisu et al., Life Sciences, 30, 1739-1746 (1982)). Analgesic activity was evaluated in term of the value of percentage of increase in the tail-flick latency time of the test rats receiving the test compound, as compared with the control rats receiving no test compound. The power of the radiant heat source was adjusted to give a tail-flick latency value (as the control value) of about 2 seconds for the rats before the administration of the test compound.
The cut-off of 7 seconds was used in order to prevent the tail tissues from being damaged by the heat. The maximal percent effect (M.P.E) of the tail-flick latency test was calculated according to the following equation: [formula]

[3] = into the brain (cerebroventricle)

Molecule: CC(=O)SCC(=O)N[C@H](Cc1ccccc1)[C@H](O)C(=O)NCC(=O)O [(2S,3R)-N--(AcSCH2 CO)--AHPA--Gly, N-{(2S,3R)-3-[N-(acetylthioacetyl)]amino-2-hydroxy-4-phenylbutanoyl}glycine]
- IC50 (enkephalinase): > 300 µM

Molecule: CC(=O)SCC(=O)N[C@H](Cc1ccccc1)[C@H](O)C(=O)N[C@@H](CC(C)C)C(=O)O [(2S,3R)-N--(AcSCH2CO)--AHPA--L-Leu, N-{(2S,3R)-3-[N-(acetylthioacetyl)]amino-2-hydroxy-4-phenylbutanoyl}-L-leucine]
- IC50 (enkephalinase): > 300 µM

Molecule: O=C(CCSC(=O)c1ccccc1)N[C@H](Cc1ccccc1)[C@H](O)C(=O)O [(2S,3R)-N--(BzSCH2 CH2 CO)--AHPA, (2S,3R)-3-[N-(3-benzoylthiopropionyl)]amino-2-hydroxy-4-phenylbutanoic acid]
- IC50 (enkephalinase): > 300 µM

Molecule: CC(SC(=O)c1ccccc1)C(=O)N[C@H](Cc1ccccc1)[C@H](O)C(=O)O (stereo partly drawn) [(2S,3R)-N--(BzSCH(Me)CO)--AHPA, (2S,3R)-3-[N-(2-benzoylthiopropionyl)]amino-2-hydroxy-4-phenylbutanoic acid]
- IC50 (enkephalinase): > 300 µM

Molecule: [D-ala^2,met^5 ]enkephaline [DAME, reference compound]
- M.P.E. DAME 10 μg ([2]; DAME 10 μg alone, into the brain (cerebroventricle), n = 3 - 4, *P < 0.05): 16.2 ± 3.9% and 14.4 ± 4.2%

The next lines start with results.

- IC50 (enkephalinase): 14000 µM
Molecule: N[C@H](Cc1ccccc1)[C@H](O)C(=O)O [(2S,3R)-AHPA, 3-amino-2-hydroxy-4-phenylbutanoic acid, reference compound]

- IC50 (enkephalinase): 50 µM
Molecule: CC(=O)SCC(=O)N[C@H](Cc1ccccc1)[C@H](O)C(=O)O [(2S,3R)-N--(AcSCH2 CO)--AHPA, (2S,3R)-3-[N-(acetylthioacetyl)]amino-2-hydroxy-4-phenylbutanoic acid]
- Rate of suppression (%) (average value ± S.E.) ([1]; 30 mg/kg subcutaneous): 33.7 ± 13.5%
- Rate of suppression (%) (average value ± S.E.) ([1]; 300 mg/kg subcutaneous): 33.3 ± 13.4%
- Enhancement in the analgesia by DAME [2]: 617.2
- M.P.E. DAME 10 μg + Test Compound 30 μg [2, 3]: 100 ± 0%
- M.P.E. Test compound 30 μg [2, 3]: 13.1 ± 6.0%

- IC50 (enkephalinase): 3 µM
Molecule: O=C(CS)N[C@H](Cc1ccccc1)[C@H](O)C(=O)O [(2S,3R)-N--(HSCH2 CO)--AHPA, (2S,3R)-3-[N-(mercaptoacetyl)]amino-2-hydroxy-4-phenylbutanoic acid]
- Rate of suppression (%) (average value ± S.E.) ([1]; 30 mg/kg subcutaneous): 12.5 ± 14.7%
- Rate of suppression (%) (average value ± S.E.) ([1]; 300 mg/kg subcutaneous): 36.5 ± 10.5%

- IC50 (enkephalinase): 40 µM
Molecule: N[C@@H](CS)C(=O)N[C@H](Cc1ccccc1)[C@H](O)C(=O)O [(2S,3R)-N--(L-Cys)--AHPA, (2S,3R)-3-(N-L-Cysteinyl)amino-2-hydroxy-4-phenylbutanoic acid]
- Rate of suppression (%) (average value ± S.E.) ([1]; 30 mg/kg subcutaneous): 56.5 ± 9.9%
- Rate of suppression (%) (average value ± S.E.) ([1]; 300 mg/kg subcutaneous): 47.9 ± 11.9%
- Enhancement in the analgesia by DAME [2]: 604.2
- M.P.E. DAME 10 μg + Test Compound 30 μg [2, 3]: 87.0 ± 13.0%
- M.P.E. Test compound 30 μg [2, 3]: 10.0 ± 5.2%

- IC50 (enkephalinase): 300 µM
Molecule: CC(=O)SCC(=O)N[C@@H](Cc1ccccc1)[C@H](O)C(=O)O [(2S,3S)-N--(AcSCH2 CO)--AHPA, (2S,3S)-3-[N-(acetylthioacetyl)]amino-2-hydroxy-4-phenylbutanoic acid]

- IC50 (enkephalinase): 20 µM
Molecule: O=C(CS)N[C@@H](Cc1ccccc1)[C@H](O)C(=O)O [(2S,3S)-N--(HSCH2 CO)--AHPA, (2S,3S)-3-[N-(mercaptoacetyl)]amino-2-hydroxy-4-phenylbutanoic acid]
